According to patent publication US20230295200A1 (REGENTS OF THE UNIVERSITY OF MICHIGAN, priority 2022, published 2023):

Key:
STAT6 protein = biological target: T1, STAT6 protein (Homo sapiens, UniProt P42226); assay: Fluorescence polarization (FP) binding assay, STAT6; conditions: FP competition, 5 nM fluorescein-labeled tracer, 200 nM protein, PBS pH7.4; read-out: Binding STAT6
T1 sequence (P42226 1-847): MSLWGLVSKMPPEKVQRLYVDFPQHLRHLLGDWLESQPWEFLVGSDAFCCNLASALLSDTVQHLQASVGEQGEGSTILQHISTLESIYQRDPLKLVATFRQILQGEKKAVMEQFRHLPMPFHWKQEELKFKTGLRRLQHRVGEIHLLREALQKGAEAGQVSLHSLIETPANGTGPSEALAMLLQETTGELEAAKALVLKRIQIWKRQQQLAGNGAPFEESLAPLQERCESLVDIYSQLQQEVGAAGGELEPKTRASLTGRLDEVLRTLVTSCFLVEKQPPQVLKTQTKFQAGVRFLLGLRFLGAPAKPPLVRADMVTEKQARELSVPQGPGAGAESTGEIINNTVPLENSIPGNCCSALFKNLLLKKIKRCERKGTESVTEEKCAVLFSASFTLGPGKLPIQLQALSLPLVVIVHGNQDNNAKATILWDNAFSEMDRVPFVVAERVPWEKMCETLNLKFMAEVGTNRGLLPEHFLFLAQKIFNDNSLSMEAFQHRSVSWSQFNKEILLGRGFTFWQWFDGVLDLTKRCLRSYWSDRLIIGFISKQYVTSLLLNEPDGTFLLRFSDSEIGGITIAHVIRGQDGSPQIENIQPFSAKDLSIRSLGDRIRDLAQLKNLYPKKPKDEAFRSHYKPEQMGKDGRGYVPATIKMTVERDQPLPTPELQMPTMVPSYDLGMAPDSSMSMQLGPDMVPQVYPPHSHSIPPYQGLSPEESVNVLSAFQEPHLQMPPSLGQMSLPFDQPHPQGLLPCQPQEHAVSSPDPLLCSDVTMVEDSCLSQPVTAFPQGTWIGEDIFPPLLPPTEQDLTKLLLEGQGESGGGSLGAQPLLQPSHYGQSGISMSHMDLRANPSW
Outline: (§1)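 5 nM fluorescein tracer + 200 nM STAT protein; PBS pH 7.4, 0.01% BGG, 0.01% Tween-20, 2 mM DTT; shake 15 min, 1 h RT equilibrium; FP read; nonlinear fit for inhibition constants.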

STAT5A = biological target: T2, STAT5A (Homo sapiens, UniProt P42229); assay: Fluorescence polarization (FP) binding assay, STAT5A; conditions: FP competition, 5 nM fluorescein-labeled tracer, 200 nM protein, PBS pH7.4
T2 sequence (P42229 1-794): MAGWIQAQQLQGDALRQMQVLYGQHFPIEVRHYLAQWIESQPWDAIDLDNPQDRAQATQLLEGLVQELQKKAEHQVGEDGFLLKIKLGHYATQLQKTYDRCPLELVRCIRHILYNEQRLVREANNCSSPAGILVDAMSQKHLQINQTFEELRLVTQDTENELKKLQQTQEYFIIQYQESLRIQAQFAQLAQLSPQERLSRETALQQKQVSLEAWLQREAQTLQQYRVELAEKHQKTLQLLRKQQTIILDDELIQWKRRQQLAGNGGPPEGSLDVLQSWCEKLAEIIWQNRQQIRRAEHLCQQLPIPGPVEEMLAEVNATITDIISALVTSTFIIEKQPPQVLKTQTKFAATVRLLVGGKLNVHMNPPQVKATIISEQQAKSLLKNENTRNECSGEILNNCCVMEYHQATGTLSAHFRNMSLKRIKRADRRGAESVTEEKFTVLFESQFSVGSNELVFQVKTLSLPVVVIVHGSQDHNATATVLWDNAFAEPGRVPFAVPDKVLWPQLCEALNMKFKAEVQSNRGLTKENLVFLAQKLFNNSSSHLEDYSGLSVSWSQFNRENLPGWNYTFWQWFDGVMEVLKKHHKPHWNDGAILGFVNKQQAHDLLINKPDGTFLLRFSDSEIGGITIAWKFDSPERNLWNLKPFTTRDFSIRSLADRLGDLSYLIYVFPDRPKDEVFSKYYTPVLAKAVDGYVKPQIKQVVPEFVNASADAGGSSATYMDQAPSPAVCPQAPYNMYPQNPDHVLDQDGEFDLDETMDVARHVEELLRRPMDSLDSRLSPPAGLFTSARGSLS
Outline: as §1

Ki (STAT6 protein) | Ki (STAT5A) | Compound
100 to 1000 nM | 1 to 10 µM | CN(C)C(=O)CCN(C(=O)[C@@H]1CCCN1C(=O)[C@@H](NC(=O)c1cc2cc(C(F)(F)P(=O)(O)O)ccc2s1)C(C)(C)C)c1ccc2ccccc2c1 [Compound 317, ((2-(((S)-1-((S)-2-((3-(dimethylamino)-3-oxopropyl)(naphthalen-2-yl)carbamoyl)pyrrolidin-1-yl)-3,3-dimethyl-1-oxobutan-2-yl)carbamoyl)benzo[b]thiophen-5-yl)difluoromethyl)phosphonic acid]
1000 to 10000 nM | 1 to 10 µM | CN(C)C(=O)CCN(C(=O)[C@@H]1CCCN1C(=O)[C@@H](NC(=O)c1cc2cc(C(F)(F)P(=O)(O)O)ccc2s1)C(C)(C)C)c1ccc(-c2ccccc2)cc1 [Compound 318]
1000 to 10000 nM | > 10 µM | CN(C)C(=O)CCN(C(=O)[C@@H]1CCCN1C(=O)[C@@H](NC(=O)c1cc2cc(C(F)(F)P(=O)(O)O)ccc2s1)C(C)(C)C)c1cccc(-c2nccs2)c1 [Compound 320, ((2-(((S)-1-((S)-2-((3-(dimethylamino)-3-oxopropyl)(3-(thiazol-2-yl)phenyl)carbamoyl)pyrrolidin-1-yl)-3,3-dimethyl-1-oxobutan-2-yl)carbamoyl)benzo[b]thiophen-5-yl)difluoromethyl)phosphonic acid]
